Structures can show the parent of a compound that is named as a salt.
Each compound was assayed against T1, human TLR9 (hTLR9) (Homo sapiens, UniProt Q9NR96) (assay: Antagonist screen, hTLR9-NFκB-293 cells, 6× NF-κB-luciferase reporter, with EC50 of CpG ODN 2006). Conditions: compound at 0.5, 5, 50 μg/ml; EC50 concentration of CpG ODN 2006; 16 h; NF-κB-luciferase.
T1 construct: expressed in transfected cells
T1 sequence (Q9NR96 26-1032): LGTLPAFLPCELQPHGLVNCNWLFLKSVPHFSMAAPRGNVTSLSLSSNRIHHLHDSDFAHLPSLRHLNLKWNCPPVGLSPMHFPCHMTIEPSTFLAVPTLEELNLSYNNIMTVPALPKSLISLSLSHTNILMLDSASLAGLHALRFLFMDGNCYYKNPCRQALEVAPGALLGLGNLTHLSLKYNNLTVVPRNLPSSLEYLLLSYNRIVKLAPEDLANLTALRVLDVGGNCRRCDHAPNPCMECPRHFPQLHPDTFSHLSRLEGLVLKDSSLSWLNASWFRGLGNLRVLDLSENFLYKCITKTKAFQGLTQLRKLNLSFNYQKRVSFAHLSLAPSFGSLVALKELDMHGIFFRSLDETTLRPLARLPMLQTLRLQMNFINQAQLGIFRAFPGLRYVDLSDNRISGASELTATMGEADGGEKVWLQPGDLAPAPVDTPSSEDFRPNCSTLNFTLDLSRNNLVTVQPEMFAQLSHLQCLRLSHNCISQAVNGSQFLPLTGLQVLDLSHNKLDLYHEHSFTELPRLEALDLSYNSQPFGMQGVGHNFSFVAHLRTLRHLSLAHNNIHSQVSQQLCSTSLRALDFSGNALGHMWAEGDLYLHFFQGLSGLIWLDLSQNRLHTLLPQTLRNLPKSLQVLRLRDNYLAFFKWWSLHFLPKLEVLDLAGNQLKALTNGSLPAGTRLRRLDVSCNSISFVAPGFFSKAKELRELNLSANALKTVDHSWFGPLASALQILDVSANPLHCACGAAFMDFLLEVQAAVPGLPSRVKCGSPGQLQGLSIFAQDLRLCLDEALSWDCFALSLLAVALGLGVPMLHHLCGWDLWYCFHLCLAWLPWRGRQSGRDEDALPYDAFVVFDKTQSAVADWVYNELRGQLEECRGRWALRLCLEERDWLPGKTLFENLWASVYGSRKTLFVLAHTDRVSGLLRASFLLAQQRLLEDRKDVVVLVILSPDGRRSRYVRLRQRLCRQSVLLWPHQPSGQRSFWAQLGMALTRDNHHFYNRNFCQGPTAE
Type: cell-based
Procedure: Candidate small molecules for initial screening were obtained from a commercially available library of 880 off-patent small molecules selected for structural diversity and proven bioavailability in humans (Prestwick Chemical Library). […] Results were measured as fold induction over baseline luciferase activity measured in the absence of ODN 2006 and compared to fold induction over baseline in the presence of the EC50 concentration of ODN 2006 alone. […] Additional screening was performed in like manner using additional small molecules selected from another library or specifically prepared for this purpose.
The method is described in greater detail as follows. The cells for each individual cell clone (hTLR3-NFκB-293, hTLR7-NFκB-293, hTLR8-NFκB-293 and hTLR9-NFκB-293) were counted and seeded one day before the stimulation at 1.5×10^4 cells per well in 96-well cell culture plates. To become adherent the cells were incubated after seeding overnight at 37° C. in 5% CO2 humidified air.
The screen for each compound was performed at the same time for all of the receptors TLR3, TLR7, TLR8 and TLR9. Up to fifteen test compounds, each assayed in duplicate at each of three different final concentrations (0.5 μg/ml, 5 μg/ml, and 50 μg/ml), were used for 16 h cell stimulation on a single multiwell culture plate. A 4× final concentration master plate was created to prepare the different test compounds before they were added to the cells.
Controls were added as duplicates individually for each cell clone on the cell culture plate. Positive controls were used as follows (final concentrations): 50 μg/ml poly(I:C) for hTLR3-NFκB-293; 8 μM resiquimod (R848) for hTLR7-NFκB-293; 30 μM R848 for hTLR8-NFκB-293; and 2.5 μM CpG-ODN 2006 for hTLR9-NFκB-293. Media alone was used as negative control. After addition of controls and small molecules, the cell clones were additionally stimulated with the EC50 concentration of the appropriate receptor-specific ligand.
The mean value of wells H2 and H5 (each with cells and EC50 concentration of the appropriate receptor-specific ligand) divided by the mean of wells H3 and H6 (each with cells alone) yielded the baseline response (i.e., fold induction of luciferase activity) to EC50 concentration of the appropriate receptor-specific ligand.
After 16 h stimulation the supernatant was removed and the cells treated with lysis buffer and stored at −80° C. before measuring.
For each screen result a graphical documentation was performed.
The baseline result (measured with addition of the EC50 concentration of the receptor-specific ligand) for each cell culture plate was measured as described above. Antagonistic effects were measured by down regulation compared to the baseline. Antagonists were scored as follows: • 13: compounds for which there was clear down regulation at 0.5 μg/ml, 5 μg/ml, and 50 μg/ml; • 12: compounds for which there was clear down regulation at 5 μg/ml and 50 μg/ml; • 11: compounds for which there was clear down regulation only at 50 μg/ml; • —: compounds for which there was no clear down regulation even at 50 μg/ml. Agonists

| Compound | hTLR9 (inhibitory effect, antagonist score) |
| --- | --- |
| Cc1nccc2c1[nH]c1ccccc12 [compound 620, Harmane hydrochloride] | 12 (compounds for which there was clear down regulation at 5 μg/ml and 50 μg/ml) |
| COc1ccc2c(c1)N(CC(C)CN(C)C)c1ccccc1S2.O=C(O)/C=C\C(=O)O (centres unmarked) [compound 797, Methotrimeprazinemaleat salt] | — (compounds for which there was no clear down regulation even at 50 μg/ml) |
| C[C@]12N[C@H](Cc3ccccc31)c1ccccc12.O=C(O)/C=C\C(=O)O [compound 109, Dizocilpine maleate] | 13 (compounds for which there was clear down regulation at 0.5 μg/ml, 5 μg/ml, and 50 μg/ml) |
| CN(C)CC/C=C1/c2ccccc2Sc2ccc(Cl)cc21.Cl [compound 348, Chlorprothixenehydrochloride] | 12 (compounds for which there was clear down regulation at 5 μg/ml and 50 μg/ml) |
| Nc1cccc2c1C(=O)c1cccc(N)c1C2=O [compound 413, Anthraquinone,1,5-diamino] | 13 (compounds for which there was clear down regulation at 0.5 μg/ml, 5 μg/ml, and 50 μg/ml) |
| CC(=O)Oc1cc(C)c(C2(c3cc(C(C)C)c(OC(C)=O)cc3C)OC(=O)c3ccccc32)cc1C(C)C [compound 1161] | 12 (compounds for which there was clear down regulation at 5 μg/ml and 50 μg/ml) |
| CN(C)CCCN1c2ccccc2Sc2ccc(Cl)cc21.Cl [compound 64, Chlorpromazinehydrochloride] | 12 (compounds for which there was clear down regulation at 5 μg/ml and 50 μg/ml) |
| CN1CCN(CCCN2c3ccccc3Sc3ccc(S(=O)(=O)N(C)C)cc32)CC1.CS(=O)(=O)O.CS(=O)(=O)O [compound 149, Thioproperasinedimesylate] | 13 (compounds for which there was clear down regulation at 0.5 μg/ml, 5 μg/ml, and 50 μg/ml) |
| COC(=O)[C@H]1[C@H]2C[C@@H]3c4[nH]c5cc(OC)ccc5c4CCN3C[C@H]2C[C@@H](OC(=O)/C=C/c2cc(OC)c(OC)c(OC)c2)[C@@H]1OC [compound 568, Rescinnamin] | 12 (compounds for which there was clear down regulation at 5 μg/ml and 50 μg/ml) |
| O=C1c2c(O)cccc2Cc2cccc(O)c21 [compound 43, Anthralin] | 13 (compounds for which there was clear down regulation at 0.5 μg/ml, 5 μg/ml, and 50 μg/ml) |
| Cc1nccc2c1[nH]c1cc(O)ccc12.Cl [compound 612, Harmol hydrochloride monohydrate] | 12 (compounds for which there was clear down regulation at 5 μg/ml and 50 μg/ml) |
| CN1CCC(=C2c3ccccc3Sc3ccccc32)CC1.O=C(O)/C=C\C(=O)O [compound 294, Pimethixene maleate] | 11 (compounds for which there was clear down regulation only at 50 μg/ml) |
| O=c1[nH]c2ccccc2n1C1CCN(CCCC(c2ccc(F)cc2)c2ccc(F)cc2)CC1 [compound 308, Pimozide] | 12 (compounds for which there was clear down regulation at 5 μg/ml and 50 μg/ml) |
| CCOC(=O)Oc1c(OC)cc(C(=O)O[C@@H]2C[C@@H]3CN4CCc5c([nH]c6cc(OC)ccc56)[C@H]4C[C@@H]3[C@H](C(=O)OC)[C@H]2OC)cc1OC [compound 564, Syrosingopine] | 13 (compounds for which there was clear down regulation at 0.5 μg/ml, 5 μg/ml, and 50 μg/ml) |
| OC(c1ccccc1)(c1ccccc1)C1CCNCC1 [compound 93, Azacyclonol] | 11 (compounds for which there was clear down regulation only at 50 μg/ml) |
| CN(C)CCC=C1c2ccccc2CCc2ccccc21.Cl [compound 74, Amitryptilinehydrochloride] | 12 (compounds for which there was clear down regulation at 5 μg/ml and 50 μg/ml) |
| COC(=O)c1cccc(C(O)(c2ccccc2)c2ccccc2)c1S(=O)(=O)C(C)(C)C [compound 1187] | — (compounds for which there was no clear down regulation even at 50 μg/ml) |
| COC(=O)c1ccc(C2CC(=O)Nc3c2ccc2ccccc32)cc1 (centres unmarked) [compound 965] | — (compounds for which there was no clear down regulation even at 50 μg/ml) |
| O=C(c1cccc2c1-c1ccccc1/C2=N\O)N1CCCCC1 [compound 1050] | 12 (compounds for which there was clear down regulation at 5 μg/ml and 50 μg/ml) |
| Cc1cccc(C2(c3cccc(C)c3)OC(=O)c3ccccc32)c1 [compound 1308] | 11 (compounds for which there was clear down regulation only at 50 μg/ml) |
| C[N+]12CCC(CC1)C(OC(=O)C(O)(c1ccccc1)c1ccccc1)C2.[Br-] (centres unmarked) [compound 822, Clidinium bromide] | 12 (compounds for which there was clear down regulation at 5 μg/ml and 50 μg/ml) |
| CC[C@]12CCCN3CCc4c(n(c5ccccc45)[C@](O)(C(=O)OC)C1)[C@@H]32 [compound 636, Epivincamine] | — (compounds for which there was no clear down regulation even at 50 μg/ml) |
| CCOC(=O)c1cc([N+](=O)[O-])cc2c1-c1ccc([N+](=O)[O-])cc1C2=C(C#N)C#N [compound 1039] | 11 (compounds for which there was clear down regulation only at 50 μg/ml) |
| COC(=O)[C@H]1[C@H]2C[C@@H]3c4[nH]c5cc(OC)ccc5c4CCN3C[C@H]2C[C@@H](OC(=O)c2cc(OC)c(OC)c(OC)c2)[C@@H]1OC [compound 875, Reserpine] | 12 (compounds for which there was clear down regulation at 5 μg/ml and 50 μg/ml) |
| CN(C)CCCN1c2ccccc2Sc2ccc(C(F)(F)F)cc21.Cl [compound 53, Triflupromazinehydrochloride] | 13 (compounds for which there was clear down regulation at 0.5 μg/ml, 5 μg/ml, and 50 μg/ml) |
| O=C(O)c1ccccc1NC1CC=CC2=C1C(=O)c1ccccc1C2=O (centres unmarked) [compound 917] | — (compounds for which there was no clear down regulation even at 50 μg/ml) |
| Cc1cc(OC(=O)C2C3CCCCC32)c(C(C)C)cc1C1(c2cc(C(C)C)c(OC(=O)C3C4CCCCC43)cc2C)OC(=O)c2ccccc21 (centres unmarked) [compound 974] | — (compounds for which there was no clear down regulation even at 50 μg/ml) |
| CN1Cc2c(N)cccc2C(c2ccccc2)C1.O=C(O)/C=C\C(=O)O (centres unmarked) [compound 108, Nomifensine maleate] | 11 (compounds for which there was clear down regulation only at 50 μg/ml) |
| Maprotilinehydrochloride [compound 346] | 11 (compounds for which there was clear down regulation only at 50 μg/ml) |

Source: US7410975B2, “Small molecule toll-like receptor (TLR) antagonists” (Coley Pharmaceutical Group, Inc., priority 2003, dated 2008)
